What was measured:
FMDV 3Cpro [1] = molecular target: T1, FMDV 3Cpro (Foot-and-mouth disease virus A, UniProt A0A097I315); test: biochemical; set-up: species or system FMDV A/IND287/96 strain (serotype A); details: FRET assay (IC50)
FMDV 3Cpro [2] = molecular target: T1, FMDV 3Cpro; test: cell-based; set-up: species or system FMDV A/IND287/96 strain; details: Cell-based assay (EC50)
FMDV [3] = details: read-out: in vitro potency against FMDV (EC50); cited from earlier work
in vitro = details: human
FMDV [4] = details: cited from earlier work
FMDV [5] = details: mouse, in vivo; cited from earlier work
SARS-CoV-2 = details: read-out: EC50 against SARS-CoV-2; cited from earlier work
FMDV [6] = details: cited from earlier work; remark: listed apart in the source
FMDV [7] = details: pig, in vivo; cited from earlier work

Row | SMILES | IC50 (FMDV 3Cpro [1]) [nM] | EC50 (FMDV 3Cpro [2]) [nM] | CC50 (in vitro) [nM] | other results
1 | CCOC(=O)/C=C/[C@H](C[C@@H]1CCNC1=O)NC(=O)[C@@H](CC(=O)[C@@H](NC(=O)c1cc(C)on1)C(C)C)Cc1ccc(F)cc1 [AG7088, Rupintrivir, reference compound] | 4300 ± 200 | 10300 ± 200 | > 50000 | EC50 (FMDV [3]): 10000 to 20000 nM
2 | Oc1ccccc1-c1nc2c3ccccc3c3ccccc3c2[nH]1 [NSC332670] | – | – | – | replication of FMDV in cell culture via inhibiting 3Cpro (FMDV [4]): inhibited the replication of FMDV in cell culture
3 | CCCCOc1nc(N)c2c(n1)N(Cc1cccc(CN3CCCC3)c1)CC(=O)N2 [GS-9620] | – | – | – | survival rate in FMDV-vaccinated and un-vaccinated mice (FMDV [5]): enhanced survival rate
4 | CC(C)C[C@H](NC(=O)OCC(C)(C)Sc1ccccc1)C(=O)N[C@H](C=O)C[C@@H]1CCNC1=O [Compound D1c] | 1200 ± 710 | 1850 ± 350 | > 50000 | EC50 (SARS-CoV-2): 12 nM
5 | NC(=O)c1ncn([C@@H]2O[C@H](CO)[C@@H](O)[C@H]2O)n1 [ribavirin] | – | – | – | in vitro activity against FMDV (EC50) (FMDV [6]): low micromolar to millimolar range
6 | O=c1c(O)c(-c2ccc(O)c(O)c2)oc2cc(O)cc(O)c12 [quercetin] | – | – | – | replication of FMDV in cell culture via inhibiting 3Cpro (FMDV [4]): inhibited the replication of FMDV in cell culture
7 | CC(C)C[C@H](NC(=O)OCCSc1ccccc1)C(=O)N[C@H](C=O)C[C@@H]1CCNC1=O [Compound D8c] | 1350 ± 350 | 1750 ± 210 | > 50000 | –
8 | [2H]C([2H])(OC(=O)N[C@@H](CC(C)C)C(=O)N[C@H](C=O)C[C@@H]1CCNC1=O)C(C)(C)Sc1ccccc1 [Compound D2c] | 1520 ± 20 | 2500 ± 420 | > 50000 | –
9 | CC(C)C[C@H](NC(=O)OC[C@@H]1C[C@H]1Cc1ccccc1)C(=O)N[C@@H](C[C@H]1CCNC1=O)C(O)S(=O)(=O)O (stereo partly drawn) [Compound C3d] | 800 ± 140 | 4020 ± 300 | > 50000 | –
10 | CC(C)C[C@H](NC(=O)OCC(C)(C)Sc1cccc(F)c1)C(=O)N[C@H](C=O)C[C@@H]1CCNC1=O [Compound D5c] | 3150 ± 490 | 1000 ± 280 | > 50000 | –
11 | CC(C)C[C@H](NC(=O)OC[C@@H]1C[C@H]1Cc1ccccc1)C(=O)N[C@H](C=O)C[C@H]1CCNC1=O [Compound C3c] | 690 ± 130 | 2740 ± 2140 | > 50000 | –
12 | CC(C)C[C@H](NC(=O)OCC(C)(C)Oc1cccc(F)c1)C(=O)N[C@H](C=O)C[C@@H]1CCNC1=O [Compound D16c] | 780 ± 30 | 4900 ± 370 | > 50000 | –
13 | CC(C)C[C@H](NC(=O)OCC(C)(C)Oc1ccc(F)cc1)C(=O)N[C@H](C=O)C[C@@H]1CCNC1=O [Compound D15c] | 450 ± 70 | 5250 ± 640 | > 50000 | –
14 | CC(C)C[C@H](NC(=O)OC[C@@H]1C[C@H]1c1ccccc1)C(=O)N[C@@H](C[C@H]1CCNC1=O)C(O)S(=O)(=O)O (stereo partly drawn) [Compound C1d] | 750 ± 70 | 3250 ± 630 | > 50000 | –
15 | CC(C)C[C@H](NC(=O)OC[C@@H]1C[C@H]1c1cccc(Cl)c1)C(=O)N[C@@H](C[C@H]1CCNC1=O)C(O)S(=O)(=O)O (stereo partly drawn) [Compound C6d] | 580 ± 110 | 2850 ± 490 | > 50000 | –
16 | CC(C)C[C@H](NC(=O)[C@H](Cc1cccc2ccccc12)NC(=O)OCc1ccccc1)C(=O)N[C@@H](C[C@@H]1CCNC1=O)C(=O)C(=O)NC(C)C [Compound E6] | 60 ± 60 | 150 ± 70 | > 50000 | –
17 | COc1cccc([C@@H]2C[C@H]2COC(=O)N[C@@H](CC(C)C)C(=O)N[C@H](C=O)C[C@H]2CCNC2=O)c1 [Compound C9c] | 750 ± 140 | 2950 ± 280 | > 50000 | –
18 | CC(C)C[C@H](NC(=O)OCC(C)(C)Sc1nc2ccccc2[nH]1)C(=O)N[C@@H](C[C@@H]1CCNC1=O)C(O)S(=O)(=O)O (stereo partly drawn) [Compound D9d] | 1750 ± 920 | > 10000 | > 50000 | –
19 | CC(C)C[C@H](NC(=O)OCC(C)(C)Oc1ccc(F)cc1)C(=O)N[C@@H](C[C@@H]1CCNC1=O)C(O)S(=O)(=O)O (stereo partly drawn) [Compound D15d] | 550 ± 70 | 5900 ± 580 | > 50000 | –
20 | Cc1cc(CCCOc2c(C)cc(-c3noc(C(F)(F)F)n3)cc2C)on1 [pleconaril] | – | – | – | in vitro activity against FMDV (EC50) (FMDV [6]): low micromolar to millimolar range
21 | CC(C)C[C@H](NC(=O)OC[C@@H]1C[C@H]1c1ccccc1)C(=O)N[C@H](C=O)C[C@H]1CCNC1=O [Compound C1c] | 1000 ± 280 | 3150 ± 350 | > 50000 | –
22 | [2H]C([2H])(OC(=O)N[C@@H](CC(C)C)C(=O)N[C@@H](C[C@@H]1CCNC1=O)C(O)S(=O)(=O)[O-])C(C)(C)Oc1cccc(Cl)c1.[Na+] (stereo partly drawn) [Compound D14d] | 650 ± 70 | 4810 ± 3060 | > 50000 | –

Row | SMILES | IC50 (FMDV 3Cpro [1]) [nM] | EC50 (FMDV 3Cpro [2]) [nM] | CC50 (in vitro) [nM] | other results
23 | CC(C)C[C@H](NC(=O)OCC(C)(C)[S+]([O-])c1ccccc1)C(=O)N[C@H](C=O)C[C@@H]1CCNC1=O (stereo partly drawn) [Compound D3c] | 1140 ± 80 | > 10000 | > 50000 | –
24 | CCC[C@@H]1C[C@H]1COC(=O)N[C@@H](CC(C)C)C(=O)N[C@@H](C[C@H]1CCNC1=O)C(O)S(=O)(=O)O (stereo partly drawn) [Compound C13d] | 750 ± 70 | 3100 ± 420 | > 50000 | –
25 | N#Cc1cc(-c2ccccc2)[nH]c1-c1nccc2ccccc12 [NSC116640] | – | – | – | replication of FMDV in cell culture via inhibiting 3Cpro (FMDV [4]): inhibited the replication of FMDV in cell culture
26 | CC(C)C[C@H](NC(=O)OCC(C)(C)Oc1cccc(Cl)c1)C(=O)N[C@@H](C[C@@H]1CCNC1=O)C(O)S(=O)(=O)O (stereo partly drawn) [Compound D13d] | 650 ± 210 | 7700 ± 850 | > 50000 | –
27 | CC(C)C[C@H](NC(=O)OCC(C)(C)[S+]([O-])c1ccccc1)C(=O)N[C@@H](C[C@@H]1CCNC1=O)C(O)S(=O)(=O)O (stereo partly drawn) [Compound D3d] | 1050 ± 210 | > 10000 | > 50000 | –
28 | NC(=O)c1ncc[nH]c1=O [Compound T-1105] | – | – | – | viremia in FMDV-challenged pigs (FMDV [7]): reduced or prevented viremia
29 | CC(C)C[C@H](NC(=O)OCc1ccccc1)C(=O)N[C@H](C=O)C[C@@H]1CCNC1=O [GC373] | 2300 ± 70 | 6600 ± 200 | > 50000 | –
30 | COc1ccccc1[C@@H]1C[C@H]1COC(=O)N[C@@H](CC(C)C)C(=O)N[C@@H](C[C@H]1CCNC1=O)C(O)S(=O)(=O)O (stereo partly drawn) [Compound C11d] | 450 ± 130 | 1020 ± 170 | > 50000 | –
31 | COc1ccccc1[C@@H]1C[C@@H]1COC(=O)N[C@@H](CC(C)C)C(=O)N[C@H](C=O)C[C@H]1CCNC1=O [Compound C12c] | 500 ± 140 | 880 ± 250 | > 50000 | –
32 | COc1ccc(-c2cc(=O)c3c(O)cc(O)c(-c4cc(-c5cc(=O)c6c(O)cc(O)cc6o5)ccc4OC)c3o2)cc1 [isoginkgetin] | – | – | – | replication of FMDV in cell culture via inhibiting 3Cpro (FMDV [4]): inhibited the replication of FMDV in cell culture
33 | CC(C)C[C@H](NC(=O)OCC(C)(C)Sc1ccccc1)C(=O)N[C@@H](C[C@@H]1CCNC1=O)C(O)S(=O)(=O)O (stereo partly drawn) [Compound D1d] | 1010 ± 420 | 1500 ± 430 | > 50000 | EC50 (SARS-CoV-2): 10 nM
34 | CC(C)C[C@H](NC(=O)OC[C@@H]1C[C@H]1c1ccc(F)cc1)C(=O)N[C@H](C=O)C[C@H]1CCNC1=O [Compound C7c] | 590 ± 40 | 2000 ± 140 | > 50000 | –
35 | COc1ccccc1[C@@H]1C[C@H]1COC(=O)N[C@@H](CC(C)C)C(=O)N[C@H](C=O)C[C@H]1CCNC1=O [Compound C11c] | 950 ± 210 | 1080 ± 50 | > 50000 | –
36 | CC(C)C[C@H](NC(=O)OCC(C)(C)Sc1cccc(Cl)c1)C(=O)N[C@@H](C[C@@H]1CCNC1=O)C(O)S(=O)(=O)O (stereo partly drawn) [Compound D7d] | 600 ± 10 | 1200 ± 140 | > 50000 | –
37 | CC(C)C[C@H](NC(=O)OCC(C)(C)Sc1cccc(Cl)c1)C(=O)N[C@H](C=O)C[C@@H]1CCNC1=O [Compound D7c] | 1500 ± 280 | 1050 ± 210 | > 50000 | –
38 | CCC[C@@H]1C[C@@H]1COC(=O)N[C@@H](CC(C)C)C(=O)N[C@@H](C[C@H]1CCNC1=O)C(O)S(=O)(=O)O (stereo partly drawn) [Compound C14d] | 1050 ± 640 | 6300 ± 850 | > 50000 | –
39 | CCCCNC(=O)C(=O)[C@H](C[C@@H]1CCNC1=O)NC(=O)[C@H](CC(C)C)NC(=O)OCc1ccccc1 [Compound E6c] | 2100 ± 70 | 7000 ± 500 | > 50000 | –
40 | O=c1cc(-c2ccc(O)c(O)c2)oc2cc(O)cc(O)c12 [luteolin] | – | – | – | replication of FMDV in cell culture via inhibiting 3Cpro (FMDV [4]): inhibited the replication of FMDV in cell culture
41 | [2H]C([2H])(OC(=O)N[C@@H](CC(C)C)C(=O)N[C@@H](C[C@@H]1CCNC1=O)C(O)S(=O)(=O)[O-])C(C)(C)Oc1ccc(Cl)cc1.[Na+] (stereo partly drawn) [Compound D12d] | 190 ± 10 | 430 ± 310 | > 50000 | –
42 | CC(C)C[C@H](NC(=O)OC[C@@H]1C[C@H]1c1cccc(F)c1)C(=O)N[C@H](C=O)C[C@H]1CCNC1=O [Compound C5c] | 1050 ± 210 | 2130 ± 490 | > 50000 | –
43 | CC(C)C[C@H](NC(=O)OCC(C)(C)Sc1ccccc1)C(=O)N[C@H](C#N)C[C@@H]1CCNC1=O [Compound D1f] | > 25000 | > 10000 | > 50000 | –
